From patent US20120071475A1, “UREA DERIVATIVES HAVING PI3K-INHIBITING ACTIVITY” (SHIONOGI & CO., LTD., priority 2009, published 2012)

What was measured:
PI3Kγ = PI3Kγ (Homo sapiens, UniProt P48736); test: PI3Kγ inhibitory activity (PI3-kinase HTRF assay, inhibition ratio); type: biochemical; settings: 0.5 h, compound at 10 μmol/L; read-out: PI3Kg Inhibition Ratio % (10 μM)
Method in brief: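 Compound at 10 μmol/L preincubated 10 min with PI3Kγ and PIP2 substrate, then reacted with ATP for 30 minutes at room temperature; the compound, substrate and ATP figures as printed (40 μmol/L each) are solution concentrations. HTRF 665/620 nm ratio read after 18 hours. Inhibition ratio calculated against no-compound (100%) and no-enzyme (0%) controls.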

[1] = Metabolic stability test (pooled human liver microsome); type: in vitro ADME; settings: percentage of test compound remained after 30 minutes, pooled human liver microsome 0.5 mg protein/mL, 1 mmol/L NADPH, 37° C., compound 0.5 μM
Method in brief: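 Pooled human liver microsomes (0.5 mg protein/mL) incubated with compound and 1 mmol/L NADPH at 37° C. in pH 7.4 Tris buffer for 0 or 30 min. Parent quantified by LC/MS/MS after methanol/acetonitrile quench; value is % remaining at 30 min versus 0 min.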

hERG channel (IKr) = biological target: T1, hERG channel (IKr) (Homo sapiens, UniProt Q12809); test: hERG test (whole-cell patch-clamp, IKr in HEK293 cells); type: cell-based; settings: human, HEK293 cells expressing hERG channel, pH 7.4, inhibition of maximum tail current (IKr), compound 1 μM
T1 construct: expressed in transfected cells; host or cells: HEK293
T1 sequence (Q12809 whole entry): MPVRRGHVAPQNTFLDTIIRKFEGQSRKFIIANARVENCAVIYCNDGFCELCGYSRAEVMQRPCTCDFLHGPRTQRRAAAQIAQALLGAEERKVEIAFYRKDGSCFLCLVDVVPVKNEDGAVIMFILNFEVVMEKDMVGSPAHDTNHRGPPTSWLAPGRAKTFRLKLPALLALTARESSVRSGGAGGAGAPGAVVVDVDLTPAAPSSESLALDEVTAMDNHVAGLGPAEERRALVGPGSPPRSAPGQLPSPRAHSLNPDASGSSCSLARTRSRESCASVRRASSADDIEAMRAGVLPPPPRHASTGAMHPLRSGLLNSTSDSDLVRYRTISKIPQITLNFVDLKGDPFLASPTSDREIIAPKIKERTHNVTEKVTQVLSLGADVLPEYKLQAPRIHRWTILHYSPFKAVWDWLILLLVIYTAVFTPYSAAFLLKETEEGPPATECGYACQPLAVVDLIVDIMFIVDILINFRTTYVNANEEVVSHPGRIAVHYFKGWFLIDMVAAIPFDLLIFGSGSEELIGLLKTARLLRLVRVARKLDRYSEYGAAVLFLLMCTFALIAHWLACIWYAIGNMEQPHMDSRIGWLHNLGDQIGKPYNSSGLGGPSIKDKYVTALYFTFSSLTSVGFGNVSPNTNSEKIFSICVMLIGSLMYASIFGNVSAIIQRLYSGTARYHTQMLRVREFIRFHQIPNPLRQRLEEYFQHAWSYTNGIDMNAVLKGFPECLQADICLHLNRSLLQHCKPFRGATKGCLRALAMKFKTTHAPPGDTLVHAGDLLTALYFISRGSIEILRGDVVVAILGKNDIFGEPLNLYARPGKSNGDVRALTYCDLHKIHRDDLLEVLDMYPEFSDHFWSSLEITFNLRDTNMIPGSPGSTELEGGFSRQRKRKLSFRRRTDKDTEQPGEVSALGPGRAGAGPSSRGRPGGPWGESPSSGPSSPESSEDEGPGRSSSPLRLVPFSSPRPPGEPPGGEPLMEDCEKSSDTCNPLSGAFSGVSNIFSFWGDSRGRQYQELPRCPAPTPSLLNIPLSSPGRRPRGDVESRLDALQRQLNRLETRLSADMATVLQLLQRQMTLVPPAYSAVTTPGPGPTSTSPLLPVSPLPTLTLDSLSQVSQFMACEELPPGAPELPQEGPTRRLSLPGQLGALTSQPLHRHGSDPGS
Method in brief: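 hERG-expressing HEK293 cells, automated whole-cell patch clamp: hold −80 mV, +50 mV for 2 s, then −50 mV for 2 s to record IKr tail current. Compound in extracellular solution (pH 7.4) for 10 min at room temperature; inhibition of maximum tail current calculated versus pre-application and compared with 0.1% DMSO vehicle.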

[2] = test system: CYP1A2, CYP2C9, CYP2C19, CYP2D6 and CYP3A4 (one value for the five species); test: CYP inhibition test, five CYP species together (5CYPs_IC50; pooled human liver microsome); type: in vitro ADME; settings: human, microsomes
From the text: O-de-ethylation of 7-ethoxyresorufin (CYP1A2), methyl-hydroxylation of tolbutamide (CYP2C9), 4′-hydroxylation of mephenyloin (CYP2C19), O-demethylation of dextromethorphan (CYP2D6), and hydroxylation of terfenadine (CYP3A4), which are typical substrate for metabolic reactions of human main CYP5 molecular species (CYP1A2, 2C9, 2C19, 2D6, and 3A4), were adopted as indexes.
The reaction conditions are as follows: substrate: 0.5 μmol/L of ethoxyresorufin (CYP1A2), 100 μmol/L of tolbutamide (CYP2C9), 50 μmol/L of S-mephenyloin (CYP2C19), 5 μmol/L of dextromethorphan (CYP2D6), and 1 μmol/L of terfenadine (CYP3A4); reaction time; 15 minutes; reaction temperature: 37° C.; enzyme: pooled human liver microsome 0.2 mg protein/mL; test drug concentration: 1, 5, 10, and 20 μmol/L (4 points).
In a 96-well plate, as a reaction solution, five kinds of substrates, a human liver microsome, and a test drug were added to 50 mmol/L Hepes buffer solution in the aforementioned ratio. A coenzyme NADPH was added to start a metabolic reaction, which is an index. After reacting at 37° C. for 15 minutes, a solution of methanol/acetonitrile (1/1 (v/v)) was added to quench the reaction. After centrifugation at 3000 rpm for 15 minutes, resorufin (CYP1A2 metabolite) in the supernatant was quantitated with a fluorescence multilabel counter, and hydroxylated tolbutamide (CYP2C9 metabolite), 4′-hydroxylated mephenyloin (CYP2C19 metabolite), […], terfenadine in alcohol form (CYP3A4 metabolite) were quantitated with LC/MS/MS.
The case wherein only DMSO (a solvent which dissolved a drug) was added to a reaction system was defined as a control (100%). When a test drug solution was added, the remaining activity (%) at each concentration was calculated, and then IC50 was calculated with a concentration and an inhibition ratio by an inverse estimation using a logistic model.

CYP3A4 = biological target: T2, CYP3A4 (Homo sapiens, UniProt P08684); test: CYP3A4 fluorescence MBI test; type: in vitro ADME; settings: difference in IC50 with 0 or 30 minutes pre-reaction; CYP3A4 expressed in E. coli, substrate 7-BFC
T2 construct: host or cells: E. coli
T2 sequence (P08684 whole entry): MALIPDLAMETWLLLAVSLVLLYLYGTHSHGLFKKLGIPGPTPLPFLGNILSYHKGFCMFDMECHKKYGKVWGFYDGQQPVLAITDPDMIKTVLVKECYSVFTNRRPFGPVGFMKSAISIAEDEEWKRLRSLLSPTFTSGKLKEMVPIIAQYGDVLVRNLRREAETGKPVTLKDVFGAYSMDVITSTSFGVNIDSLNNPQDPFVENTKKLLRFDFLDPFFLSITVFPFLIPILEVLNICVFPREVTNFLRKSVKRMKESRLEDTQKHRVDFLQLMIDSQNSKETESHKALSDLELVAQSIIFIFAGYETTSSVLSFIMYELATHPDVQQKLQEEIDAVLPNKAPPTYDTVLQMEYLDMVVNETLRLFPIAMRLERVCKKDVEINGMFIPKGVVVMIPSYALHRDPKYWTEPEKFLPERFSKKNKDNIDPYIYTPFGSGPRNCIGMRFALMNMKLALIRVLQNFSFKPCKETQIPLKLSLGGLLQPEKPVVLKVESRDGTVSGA
Method in brief: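 E. coli-expressed CYP3A4 debenzylating 5.6 μmol/L 7-BFC to fluorescent 7-HFC (Ex 420/Em 535 nm) in K-Pi pH 7.4 at 25° C, 15 min reaction. NADPH pre-incubation of 0 or 30 min, with 10-fold dilution before reaction. IC50 from 0.625–20 μmol/L (6 points); (+) for an IC50 shift ≥5 μmol/L, (−) for ≤3 μmol/L.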

AKT phosphorylation = AKT phosphorylation inhibitory activity in MCP-1 stimulated THP-1 cells (sandwich ELISA); type: cell-based, Human; settings: Homo sapiens, compound at 1 μmol/L, MCP-1 stimulation, read-out: AKT phosphorylation inhibition ratio
Procedure: (1) The AKT phosphorylation inhibitory activity of a compound was evaluated according to the following procedure. (2) Human monocyte-like cell line THP-1 was washed with RPMI-1640 media, incubated in the presence of 5% CO2 at 37° C. for 3 hours, washed with Hank's balanced salt solution (HBSS), adjusted to a cell concentration of 6.7×10^6/mL, and then used in an experiment. (3) 30 μL of the cell suspension and 60 μL of each compound solution containing 0.2% DMSO/HBSS were mixed and then preincubated at 37° C. for 5 minutes. 30 μL of HBSS containing 1.2 μg/mL of MCP-1 was added thereto and then incubated for 60 seconds at 37° C. (4) 30 μL of a cell lysate (the final concentrations: 20 mmol/L Tris-HCl (pH 7.5), 150 mmol/L NaCl, 1 mmol/L EDTA, 1 mmol/L EDTA, 1% Triton X-100, 2.5 mmol/L sodium pyrophosphate, 1 mmol/L β-glycerophosphate, 1 mmol/L Na3VO4, 1 μg/ml leupeptin, 50 nmol/L APMSF) was added thereto to lyse cells. (5) The amount of AKT phosphorylation in the cell solution was measured by sandwich ELISA method using anti-Phospho-Akt (Ser473) antibody and anti-AKT1 antibody. (6) Anti-Phospho-Akt (Ser473) antibodies or anti-AKT1 antibodies were immobilized onto the solid phase of a micro well plate. The prepared cell lysate was added to the micro well plate, incubated, and then washed with ELISA wash solution. (7) An anti-AKT1 antibody or anti-Phospho-Akt (Ser473) antibody, which forms a counterpart to an antibody immobilized on the solid phase, was added thereto, incubated, washed similarly, and then reacted with an HRP-labeled anti-mouse IgG antibody. (8) After incubating for 30 minutes and then washing similarly, 100 μL of TMB (3,3′,5,5″-tetramethylbenzidine) was added thereto, followed by reacting for 30 minutes. (9) 100 μL of stop solution was added to quench the color reaction, and then the absorbance at 450 nm was measured. (10) The amount of AKT phosphorylation in a sample in the absence of a compound was defined as 100% activity, and the amount of AKT phosphorylation in a sample in the absence of MCP-1 was defined as 0% activity to calculate an inhibition ratio of each compound. The measurement was performed for a 1 μmol/L solution of each compound.

Chain of PI3Kγ (P48736 whole entry, species assumed): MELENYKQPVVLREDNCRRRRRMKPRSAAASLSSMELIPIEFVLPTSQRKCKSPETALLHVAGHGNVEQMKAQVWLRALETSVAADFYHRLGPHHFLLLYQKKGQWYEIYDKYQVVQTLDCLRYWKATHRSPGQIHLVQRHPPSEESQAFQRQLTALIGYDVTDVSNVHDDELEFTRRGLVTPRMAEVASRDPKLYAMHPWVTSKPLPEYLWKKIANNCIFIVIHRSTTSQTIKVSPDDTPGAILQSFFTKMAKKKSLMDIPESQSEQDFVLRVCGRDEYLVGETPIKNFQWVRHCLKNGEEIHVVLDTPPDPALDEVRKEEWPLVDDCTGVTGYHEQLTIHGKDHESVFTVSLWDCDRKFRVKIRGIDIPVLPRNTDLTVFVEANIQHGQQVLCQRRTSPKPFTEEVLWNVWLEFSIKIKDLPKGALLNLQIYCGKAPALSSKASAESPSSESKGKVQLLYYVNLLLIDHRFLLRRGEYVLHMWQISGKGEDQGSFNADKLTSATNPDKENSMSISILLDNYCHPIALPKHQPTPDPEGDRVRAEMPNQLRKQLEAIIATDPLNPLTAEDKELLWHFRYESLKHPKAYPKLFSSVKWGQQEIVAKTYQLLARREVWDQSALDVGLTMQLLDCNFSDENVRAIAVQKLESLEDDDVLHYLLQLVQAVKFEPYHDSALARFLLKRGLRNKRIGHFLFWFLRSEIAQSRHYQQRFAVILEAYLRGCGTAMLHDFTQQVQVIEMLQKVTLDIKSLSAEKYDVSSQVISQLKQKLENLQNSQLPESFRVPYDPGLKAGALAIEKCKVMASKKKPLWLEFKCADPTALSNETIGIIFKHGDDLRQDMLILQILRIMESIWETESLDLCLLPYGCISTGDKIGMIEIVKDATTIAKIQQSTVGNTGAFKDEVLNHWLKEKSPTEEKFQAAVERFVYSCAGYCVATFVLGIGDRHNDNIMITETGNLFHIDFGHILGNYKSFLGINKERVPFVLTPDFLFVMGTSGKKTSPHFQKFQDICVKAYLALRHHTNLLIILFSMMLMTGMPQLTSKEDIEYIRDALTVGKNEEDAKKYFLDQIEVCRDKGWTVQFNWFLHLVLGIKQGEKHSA

Structure (SMILES) | inhibition at 10 µM (PI3Kγ) [%] | hLMS_ox(at 0.5 μM) % [1] [%] | inhibition at 10 min, 1 µM (hERG channel (IKr)) [%] | IC50 at 15 min [2] [µM] | MBI (CYP3A4) | inhibition at 1 µM (AKT phosphorylation) [%]
COc1cc(C2CCc3nc(NC(=O)Nc4ccccc4C(=O)NC(C)C)sc3C2)nc(OC)n1 (centres unmarked) [Compound I-60] | ≥ 95 | 81.9 | 3.6 | > 20 | – | –
COc1cc(N2CCc3nc(NC(=O)Nc4ccccc4C(=O)NC(C)C)sc3C2)cc(OC)n1 [Compound I-63] | ≥ 95 | 80.1 | 2.7 | > 20 | – | –
COc1cc(N2CCc3nc(NC(=O)Nc4ccccc4C(=O)NCCC#N)sc3C2)nc(OC)n1 [Compound I-89] | ≥ 95 | 93.6 | – | ≥ 10 | (−) (When 3 μmol/L or less, the compound is shown as (−)) | –
COc1cc(N2CCc3nc(NC(=O)Nc4ccccc4C(=O)NCC#N)sc3C2)nc(OC)n1 [Compound I-90] | – | 83.4 | – | ≥ 10 | (−) (When 3 μmol/L or less, the compound is shown as (−)) | –
COc1cc(N2CCc3nc(NC(=O)Nc4cn(C)nc4C(=O)NC(CO)CO)sc3C2)nc(OC)n1 [Compound I-170] | ≥ 95 | 91.6 | – | > 20 | – | 80
Cc1cc(N2CCc3nc(NC(=O)Nc4ccccc4C(=O)NCC#N)sc3C2)nc(Cl)n1 [Compound I-172] | ≥ 95 | 98 | – | ≥ 10 | (−) (When 3 μmol/L or less, the compound is shown as (−)) | –
COc1nc(Cl)cc(N2CCc3nc(NC(=O)Nc4ccccc4C(=O)NC4CCOC4)sc3C2)n1 (centres unmarked) [Compound I-175] | ≥ 95 | – | 1.6 | ≥ 10 | – | 88
COc1nc(Cl)cc(N2CCc3nc(NC(=O)Nc4ccccc4C(=O)NC(C)C(F)(F)F)sc3C2)n1 (centres unmarked) [Compound I-176] | – | – | 0.4 | ≥ 10 | (−) (When 3 μmol/L or less, the compound is shown as (−)) | 83
CC(C)NC(=O)c1ccccc1NC(=O)Nc1nc2c(s1)CN(c1cncc(C#N)c1)CC2 [Compound I-188] | 80 | – | 3.9 | > 20 | – | 84
CC(C)NC(=O)c1ccccc1NC(=O)Nc1nc2c(s1)CN(c1ccc(S(C)(=O)=O)cc1)CC2 [Compound I-204] | ≥ 95 | – | – | > 20 | (−) (When 3 μmol/L or less, the compound is shown as (−)) | –
CC(C)NC(=O)c1ccccc1NC(=O)Nc1nc2c(s1)CN(c1ccc(C#N)cc1)CC2 [Compound I-209] | ≥ 95 | – | – | ≥ 10 | (−) (When 3 μmol/L or less, the compound is shown as (−)) | –
